Measurements from patent US20160075653A1, “NEMATICIDAL N-(PHENYLCYCLOALKYL)CARBOXAMIDES AND N-(PHENYLCYCLOALKYL)THIOCARBOXAMIDES” (BAYER CROPSCIENCE AKTIENGESELLSCHAFT, priority 2013, published 2016).

Test: Measurement of log P values by HPLC on reversed phase columns (methods [a] pH 2.3, [b] pH 2.7, [c] pH 7.8)
Type: physicochemical
Experimental: Measurement of log P-Values:
Measurement of log P Values was Performed According EEC Directive 79/831 Annex V.A8 by HPLC (High Performance Liquid
Chromatography) on reversed phase columns with the following methods: ^[a] Measurement was done at pH 2.3 with 0.1% phosphoric acid and acetonitrile as eluent with a linear gradient from 10% acetonitrile to 95% acetonitrile. ^[b] measurement of LC-MS was done at pH 2.7 with 0.1% formic acid in water and with acetonitrile (contains 0.1% formic acid) as eluent with a linear gradient from 10% acetonitrile to 95% acetonitrile. ^[c] Measurement with LC-MS was done at pH 7.8 with 0.001 molar ammonium hydrogen carbonate solution in water as eluent with a linear gradient from 10% acetonitrile to 95% acetonitrile.
Calibration was done with linear alkan-2-ones (with 3 to 16 carbon atoms) with known log P-values (measurement of log P values using retention times with linear interpolation between successive alkanones). Lambda-max-values were determined using UV-spectra from 200 nm to 400 nm and the peak values of the chromatographic signals.

[1] = HPLC on reversed phase columns, method [b], pH 2.7
[2] = method [b], HPLC reversed phase, pH 2.7
[3] = HPLC reversed phase, method [b] (pH 2.7)

| SMILES | logP [1] | further results |
| --- | --- | --- |
| O=C(N[C@@H]1CCC[C@@H]1c1ccc(F)c(F)c1)c1sccc1Cl (relative stereo) [Example 80] | 3.72^[b] | – |
| CCCc1nn(C)cc1C(=O)N[C@@H]1CCC[C@@H]1c1ccc(F)c(F)c1 (relative stereo) [Example 81] | 2.80^[b] | – |
| CCc1nn(C)c(F)c1C(=O)N[C@@H]1CCC[C@@H]1c1ccc(F)c(F)c1 (relative stereo) [Example 83] | 2.92^[b] | – |
| CCn1nc(C)c(C(=O)N[C@@H]2CCC[C@@H]2c2ccc(F)c(F)c2)c1F (relative stereo) [Example 84] | 2.92^[b] | – |
| Cc1nn(C)c(Cl)c1C(=O)N[C@@H]1CCC[C@@H]1c1ccc(F)c(F)c1 (relative stereo) [Example 85] | 2.82^[b] | – |
| CCCc1nn(C)c(F)c1C(=O)N[C@@H]1CCC[C@@H]1c1ccc(F)c(F)c1 (relative stereo) [Example 87] | 3.25^[b] | – |
| O=C(N[C@@H]1CCC[C@@H]1c1ccc(F)c(F)c1)c1ccccc1C(F)(F)F (relative stereo) [Example 88] | 3.50^[b] | – |
| O=C(N[C@@H]1CCC[C@@H]1c1ccc(F)c(F)c1)c1cnccc1C(F)(F)F (relative stereo) [Example 89] | 2.92^[b] | – |
| O=C(N[C@@H]1CCC[C@@H]1c1ccc(F)c(F)c1)c1ncccc1C(F)(F)F (relative stereo) [Example 90] | 3.31^[b] | – |
| Cn1cc(C(=O)N[C@@H]2CCC[C@@H]2c2ccc(F)c(F)c2)c(C(F)(F)F)c1 (relative stereo) [Example 91] | 3.27^[b] | – |
| Cn1cc(C(=O)N[C@@H]2CCC[C@@H]2c2ccc(F)c(F)c2)c(C(F)(F)F)n1 (relative stereo) [Example 92] | 2.98^[b] | – |
| O=C(N[C@@H]1CCC[C@@H]1c1ccc(F)c(F)c1)c1sccc1C(F)(F)F (relative stereo) [Example 93] | 3.63^[b] | – |
| O=C(N[C@@H]1CCC[C@@H]1c1ccc(F)c(F)c1)c1ccccc1Br (relative stereo) [Example 94] | 3.35^[b] | – |
| O=C(N[C@@H]1CCC[C@@H]1c1ccc(F)c(F)c1)c1ccccc1OC(F)(F)F (relative stereo) [Example 95] | 3.76^[b] | – |
| O=C(N[C@@H]1CCC[C@@H]1c1ccc(F)c(F)c1)c1sccc1Br (relative stereo) [Example 96] | 3.79^[b] | – |
| Nc1nc(C(F)(F)F)c(C(=O)N[C@@H]2CCC[C@@H]2c2ccc(F)c(F)c2)s1 (relative stereo) [Example 97] | 2.82^[b] | – |
| O=C(N[C@@H]1CCC[C@@H]1c1ccc(F)c(F)c1)c1ccccc1Cc1ccccc1 (relative stereo) [Example 98] | 4.26^[b] | – |
| Cn1cc(C(=O)N[C@@H]2CCC[C@@H]2c2ccc(F)c(F)c2)c(I)n1 (relative stereo) [Example 99] | 2.75^[b] | – |
| Cn1ccc(I)c1C(=O)N[C@@H]1CCC[C@@H]1c1ccc(F)c(F)c1 (relative stereo) [Example 100] | 3.83^[b] | – |
| O=C(N[C@@H]1CCC[C@@H]1c1ccc(F)c(F)c1)c1sccc1I (relative stereo) [Example 101] | 3.79^[b] | – |
| Cc1oncc1C(=O)N[C@@H]1CCC[C@H]1c1ccc(F)c(F)c1 (relative stereo) [Example 102] | 2.82^[b] | – |

| SMILES | logP [1] | further results |
| --- | --- | --- |
| Cc1cccnc1C(=O)N[C@@H]1CCC[C@H]1c1ccc(F)c(F)c1 (relative stereo) [Example 103] | 3.33^[b] | – |
| Cc1ncncc1C(=O)N[C@@H]1CCC[C@H]1c1ccc(F)c(F)c1 (relative stereo) [Example 104] | 2.21^[b] | – |
| O=C(N[C@@H]1CCC[C@H]1c1ccc(F)c(F)c1)c1ccccc1F (relative stereo) [Example 105] | 3.35^[b] | – |
| O=C(N[C@@H]1CCC[C@H]1c1ccc(F)c(F)c1)c1cccnc1F (relative stereo) [Example 106] | 2.80^[b] | – |
| O=C(N[C@@H]1CCC[C@H]1c1ccc(F)c(F)c1)c1ccncc1F (relative stereo) [Example 107] | 2.62^[b] | – |
| Cc1ncc(C(=O)N[C@@H]2CCC[C@H]2c2ccc(F)c(F)c2)s1 (relative stereo) [Example 108] | 2.64^[b] | – |
| Cc1nnsc1C(=O)N[C@@H]1CCC[C@H]1c1ccc(F)c(F)c1 (relative stereo) [Example 109] | 2.92^[b] | – |
| N#Cc1ncccc1C(=O)N[C@@H]1CCC[C@H]1c1ccc(F)c(F)c1 (relative stereo) [Example 110] | 3.31^[b] | – |
| Cn1cccc1C(=O)N[C@@H]1CCC[C@@H]1c1ccc(F)c(F)c1 (relative stereo) [Example 111] | 3.13^[b] | – |
| Cc1oncc1C(=O)N[C@@H]1CCC[C@@H]1c1ccc(F)c(F)c1 (relative stereo) [Example 112] | 2.73^[b] | – |
| Cn1cc(C(=O)N[C@@H]2CCC[C@@H]2c2ccc(F)c(F)c2)c(=O)[nH]1 (relative stereo) [Example 113] | 2.00^[b] | – |
| CCc1ccccc1C(=O)N[C@@H]1CCC[C@@H]1c1ccc(F)c(F)c1 (relative stereo) [Example 114] | 3.75^[b] | – |
| COc1c(C(=O)N[C@@H]2CCC[C@@H]2c2ccc(F)c(F)c2)c(C)nn1C (relative stereo) [Example 116] | 2.59^[b] | – |
| Cc1ccc(C(=O)N[C@@H]2CCC[C@@H]2c2ccc(F)c(F)c2)c(Cl)n1 (relative stereo) [Example 117] | 2.86^[b] | – |
| CC(C)Oc1nn(C)cc1C(=O)N[C@@H]1CCC[C@@H]1c1ccc(F)c(F)c1 (relative stereo) [Example 118] | 3.27^[b] | – |
| O=C(N[C@@H]1CCC[C@@H]1c1ccc(F)c(F)c1)c1ccccc1OC(F)F (relative stereo) [Example 119] | 3.51^[b] | – |
| O=C(N[C@@H]1CCC[C@@H]1c1ccc(F)c(F)c1)c1c(Cl)ccnc1Cl (relative stereo) [Example 120] | 3.02^[b] | – |
| O=C(N[C@@H]1CCC[C@@H]1c1ccc(F)c(F)c1)c1snc(Cl)c1Cl (relative stereo) [Example 121] | 4.19^[b] | – |
| Cn1nc(C(F)(F)F)c(C(=O)N[C@@H]2CCC[C@@H]2c2ccc(F)c(F)c2)c1F (relative stereo) [Example 122] | 3.27^[b] | – |
| Cc1nc(Br)sc1C(=O)N[C@@H]1CCC[C@@H]1c1ccc(F)c(F)c1 (relative stereo) [Example 123] | 3.46^[b] | – |
| O=C(N[C@@H]1CCC[C@@H]1c1ccc(F)c(F)c1)c1ccc(C(F)(F)F)nc1Cl (relative stereo) [Example 124] | 3.68^[b] | – |

| SMILES | logP [1] | further results |
| --- | --- | --- |
| Cn1cc(C(=O)N[C@@H]2CCC[C@H]2c2ccc(F)c(F)c2)c(C(F)F)n1 (relative stereo) [Example 125] | 2.88^[b] | – |
| CCOc1nn(C)cc1C(=O)N[C@@H]1CCC[C@H]1c1ccc(F)c(F)c1 (relative stereo) [Example 127] | – | logP [2]: 3.13^[b] |
| Cc1nc(C(F)(F)F)c(C(=O)N[C@@H]2CCC[C@H]2c2ccc(F)c(F)c2)s1 (relative stereo) [Example 128] | – | logP [2]: 3.42^[b] |
| O=C(N[C@@H]1CCC[C@H]1c1ccc(F)c(F)c1)c1ccsc1I (relative stereo) [Example 129] | – | logP [2]: 3.58^[b] |
| O=C(N[C@@H]1CCC[C@H]1c1ccc(F)c(F)c1)C1=C(C(F)(F)F)OCCS1 (relative stereo) [Example 130] | – | logP [2]: 3.39^[b] |
| O=C(N[C@@H]1CCC[C@H]1c1ccc(F)c(F)c1)c1ccccc1I (relative stereo) [Example 131] | – | logP [2]: 3.56^[b] |
| Cn1cccc1C(=O)N[C@@H]1CCC[C@H]1c1ccc(F)c(F)c1 (relative stereo) [Example 132] | – | logP [2]: 3.23^[b] |
| Cc1occc1C(=O)N[C@@H]1CCC[C@H]1c1ccc(F)c(F)c1 (relative stereo) [Example 133] | – | logP [2]: 3.17^[b] |
| Cc1cc(C(=O)N[C@@H]2CCC[C@H]2c2ccc(F)c(F)c2)c(C)o1 (relative stereo) [Example 134] | – | logP [2]: 3.46^[b] |
| Cn1cc(C(=O)N[C@@H]2CCC[C@H]2c2ccc(F)c(F)c2)c(=O)[nH]1 (relative stereo) [Example 135] | – | logP [2]: 2.18^[b] |
| Cc1ccsc1C(=O)N[C@@H]1CCC[C@H]1c1ccc(F)c(F)c1 (relative stereo) [Example 136] | – | logP [2]: 3.46^[b] |
| O=C(N[C@@H]1CC[C@H]1c1ccccc1Cl)c1ccc(Cl)cc1Cl (relative stereo) [Example 240] | – | logP [2]: 3.84^[b] |
| O=C(N[C@@H]1CC[C@H]1c1ccccc1Cl)c1ccccc1I (relative stereo) [Example 241] | – | logP [2]: 3.46^[b] |
| O=C(N[C@@H]1CC[C@H]1c1ccccc1Cl)c1ccccc1C(F)(F)F (relative stereo) [Example 242] | – | logP [2]: 3.45^[b] |
| O=C(N[C@@H]1CC[C@H]1c1ccccc1Cl)c1c(F)cccc1F (relative stereo) [Example 243] | – | logP [3]: 3.11^[b] |
| O=C(N[C@@H]1CC[C@H]1c1ccccc1Cl)c1ccccc1Br (relative stereo) [Example 244] | – | logP [3]: 3.33^[b] |
| O=C(N[C@@H]1CC[C@H]1c1ccccc1Cl)c1cccnc1C(F)(F)F (relative stereo) [Example 245] | – | logP [3]: 2.89^[b] |
| O=C(N[C@@H]1CC[C@@H]1c1ccccc1Cl)c1ncc(C(F)(F)F)cc1Cl (relative stereo) [Example 246] | – | logP [3]: 3.77^[b] |
| O=C(N[C@@H]1CC[C@@H]1c1ccccc1Cl)c1ccc(Cl)cc1Cl (relative stereo) [Example 249] | – | logP [3]: 3.65^[b] |
| Cn1cc(C(=O)N[C@@H]2CC[C@@H]2c2ccccc2Cl)c(C(F)F)n1 (relative stereo) [Example 255] | – | logP [3]: 2.47^[b] |
